Assay results reported in patent US10059722B2, “Cephalosporin derivatives and methods of use” (priority 2012, dated 2018).
Converted amounts (≈) assume the structure as drawn. Like-named read-outs stand apart in the source and are kept apart here.

What was measured:
[1] = tested on: replicating M. tuberculosis; test: MIC under replication (R) conditions; format: cell-based, Mycobacterium tuberculosis; details: Mycobacterium tuberculosis
HepG2 cells = format: cell-based
Procedure: Three lead compounds were identified in the first round of high throughput screening (700 compounds), which had minimal inhibitory concentrations (MIC) of 0.4-0.8 μg/mL after a six day exposure to drug (NRd6) in the model of non-replication at pH 5.0, and LD50's of 100 to >100 μg/mL against HepG2 cells (a 2 day exposure).
Furthermore, LD50 values were determined using a human hepatoma cell line (HepG2) using intracellular ATP levels as a measurement that correlated with cellular viability.

[2] = tested on: non-replicating M. tuberculosis; test: microbe, parasite or virus in culture; format: cell-based, Mycobacterium tuberculosis; details: for MIC: Mycobacterium tuberculosis
[3] = 72 h, Table 9, 3 Day Exposure to Drug, read-out: MIC NR 0.01 Inoc.
[4] = 72 h, Table 9, 3 Day Exposure to Drug, read-out: MIC NR 0.1 Inoc.
[5] = read-out: MIC NR at 0.01 Inoc. and 3 Day Exposure to Drug, 7 Day Outgrowth, Table 8, ranges from multiple assays
[6] = read-out: MIC NR at 0.01 Inoc. and 3 Day Exposure to Drug, 11 Day Outgrowth, Table 8, ranges from multiple assays
[7] = Table 8, ranges from multiple assays

## CC1=C(C(=O)O)N2C(=O)[C@@H](NS(=O)(=O)Cc3ccccc3)[C@H]2SC1 [Compound 112]
[1]; Table 9, read-out: MIC R
  MIC: > 100 µg/mL
HepG2 cells; human, 2 day
  HepG2 LD50: >100 µg/mL
[2]; [3]
  MIC: > 100 µg/mL
[2]; [4]
  MIC: > 100 µg/mL

## C=CC1=C(C(=O)O)N2C(=O)[C@@H](NC(=O)/C(=N\O)c3csc(N)n3)[C@H]2SC1 [Compound 107]
HepG2 cells; human, 2 day
  HepG2 Toxicity LD50: >100 µg/mL
[2]; [5]
  MIC: 50 µg/mL (≈ 126 µM)
[2]; [6]
  MIC: 50 µg/mL (≈ 126 µM)

## CCCOC(=O)C1=C(C)CS[C@@H]2[C@H](NC(=O)CCc3ccc(OC)cc3)C(=O)N12 [Compound 99]
HepG2 cells; human, 2 day
  HepG2 Toxicity LD50: >100 µg/mL
[2]; [5]
  MIC: 0.1 µg/mL (≈ 0.239 µM)
[2]; [6]
  MIC: 0.2 µg/mL (≈ 0.478 µM)

## CCCOC(=O)C1=C(C)CS[C@@H]2[C@H](NC(=O)CCc3ccccc3)C(=O)N12 [Compound 48]
HepG2 cells; Table 8
  HepG2 Toxicity LD50: >100 µg/mL
[2]; [7]
  MIC NR at 0.01 Inoc. and 3 Day Exposure to Drug, 7 Day Outgrowth: 0.10 µg/mL (≈ 0.257 µM)
  MIC NR at 0.01 Inoc. and 3 Day Exposure to Drug, 11 Day Outgrowth: 0.20 µg/mL (≈ 0.515 µM)

## C#CCCC(=O)N[C@@H]1C(=O)N2C(C(=O)OCCC)=C(C)CS[C@H]12 [Compound 34]
HepG2 cells; Table 8
  HepG2 Toxicity LD50: >100 µg/mL
[2]; [7]
  MIC NR at 0.01 Inoc. and 3 Day Exposure to Drug, 7 Day Outgrowth: 1.56 µg/mL (≈ 4.64 µM)
  MIC NR at 0.01 Inoc. and 3 Day Exposure to Drug, 11 Day Outgrowth: 3.13 µg/mL (≈ 9.3 µM)

## CCOC(=O)C1=C(C)CS[C@@H]2[C@H](NC(=O)COc3ccc(OC)cc3)C(=O)N12 [Compound 43]
HepG2 cells; Table 8
  HepG2 Toxicity LD50: >100 µg/mL
[2]; [7]
  MIC NR at 0.01 Inoc. and 3 Day Exposure to Drug, 7 Day Outgrowth: 0.39 µg/mL (≈ 0.96 µM)
  MIC NR at 0.01 Inoc. and 3 Day Exposure to Drug, 11 Day Outgrowth: 1.56 µg/mL (≈ 3.84 µM)

## CCCOC(=O)C1=C(C)CS[C@@H]2[C@H](NC(=O)COc3ccc(OC)cc3)C(=O)N12 [Compound 42]
HepG2 cells; Table 8
  HepG2 Toxicity LD50: >100 µg/mL
[2]; [7]
  MIC NR at 0.01 Inoc. and 3 Day Exposure to Drug, 7 Day Outgrowth: 0.20 µg/mL (≈ 0.476 µM)
  MIC NR at 0.01 Inoc. and 3 Day Exposure to Drug, 11 Day Outgrowth: 0.39 µg/mL (≈ 0.927 µM)

## COc1ccc(CCC(=O)N[C@@H]2C(=O)N3C(C(=O)O)=C(C)CS[C@H]23)cc1 [Compound 108]
[1]; Table 9, read-out: MIC R
  MIC: > 100 µg/mL
HepG2 cells; human, 2 day
  HepG2 LD50: >100 µg/mL
[2]; [3]
  MIC: > 100 µg/mL
[2]; [4]
  MIC: > 100 µg/mL

## CC1=C(C(=O)OCc2ccccc2)N2C(=O)[C@@H](NC(=O)CCc3ccc(Cl)cc3)[C@H]2SC1 [Compound 100]
HepG2 cells; human, 2 day
  HepG2 Toxicity LD50: 50 µg/mL
[2]; [5]
  MIC: 0.39 µg/mL (≈ 0.828 µM)
[2]; [6]
  MIC: 0.78 µg/mL (≈ 1.66 µM)

## CCCCOC(=O)C1C(C)=CS[C@@H]2[C@H](NC(=O)COc3ccccc3)C(=O)N12 (some centres unmarked) [Compound 119]
[1]; read-out: minimum inhibitory concentration against replicating M. tuberculosis
  MIC: 100 µg/mL (≈ 247 µM)
[2]; 3,4-olefinic isomers, read-out: minimum inhibitory concentration against non-replicating M. tuberculosis
  MIC: 3.1 µg/mL (≈ 7.66 µM)

## CCOC(=O)C1=C(C)CS[C@@H]2[C@H](NC(=O)COc3ccc(Cl)cc3)C(=O)N12 [Compound 46]
HepG2 cells; Table 8
  HepG2 Toxicity LD50: 50 µg/mL
[2]; [7]
  MIC NR at 0.01 Inoc. and 3 Day Exposure to Drug, 7 Day Outgrowth: 0.39 µg/mL (≈ 0.949 µM)
  MIC NR at 0.01 Inoc. and 3 Day Exposure to Drug, 11 Day Outgrowth: 078 µg/mL (≈ 190 µM)

## C#CCOC(=O)C1=C(C)CS[C@@H]2[C@H](NC(=O)CCc3ccc(OC)cc3)C(=O)N12 [Compound 94]
HepG2 cells; Table 8
  HepG2 Toxicity LD50: >100 µg/mL
[2]; [7]
  MIC NR at 0.01 Inoc. and 3 Day Exposure to Drug, 7 Day Outgrowth: 0.78 µg/mL (≈ 1.88 µM)
  MIC NR at 0.01 Inoc. and 3 Day Exposure to Drug, 11 Day Outgrowth: 1.56 µg/mL (≈ 3.76 µM)

## CC1=C(C(=O)O)N2C(=O)[C@@H](NC(=O)CCc3ccc(F)cc3)[C@H]2SC1 [Compound 113]
[1]; Table 9, read-out: MIC R
  MIC: 100 µg/mL (≈ 274 µM)
HepG2 cells; human, 2 day
  HepG2 LD50: >100 µg/mL
[2]; [3]
  MIC: > 100 µg/mL
[2]; [4]
  MIC: > 100 µg/mL

## C#CCOC(=O)C1=C(C)CS[C@@H]2[C@H](NC(=O)COc3ccc(Cl)cc3)C(=O)N12 [Compound 88]
HepG2 cells; Table 8
  HepG2 Toxicity LD50: 100 µg/mL
[2]; [7]
  MIC NR at 0.01 Inoc. and 3 Day Exposure to Drug, 7 Day Outgrowth: 0.78 µg/mL (≈ 1.85 µM)
  MIC NR at 0.01 Inoc. and 3 Day Exposure to Drug, 11 Day Outgrowth: 1.56 µg/mL (≈ 3.71 µM)

## CCOC(=O)C1=C(C)CS[C@@H]2[C@H](NC(=O)CCc3ccccc3)C(=O)N12 [Compound 49]
HepG2 cells; Table 8
  HepG2 Toxicity LD50: >100 µg/mL
[2]; [7]
  MIC NR at 0.01 Inoc. and 3 Day Exposure to Drug, 7 Day Outgrowth: 0.20 µg/mL (≈ 0.534 µM)
  MIC NR at 0.01 Inoc. and 3 Day Exposure to Drug, 11 Day Outgrowth: 0.39 µg/mL (≈ 1.04 µM)

## C#CCOC(=O)N[C@@H]1C(=O)N2C(C(=O)OCC#C)=C(C)CS[C@H]12 [Compound 105]
HepG2 cells; human, 2 day
  HepG2 Toxicity LD50: >100 µg/mL
[2]; [5]
  MIC: 6.25 µg/mL (≈ 18.7 µM)
[2]; [6]
  MIC: 12.5 µg/mL (≈ 37.4 µM)

## CC1=C(C(=O)O)N2C(=O)[C@@H](NC(=O)c3ccc(Cl)cc3)[C@H]2SC1 [Compound 114]
[1]; Table 9, read-out: MIC R
  MIC: > 100 µg/mL
HepG2 cells; human, 2 day
  HepG2 LD50: >100 µg/mL
[2]; [3]
  MIC: > 100 µg/mL
[2]; [4]
  MIC: > 100 µg/mL

## COc1ccc(OCC(=O)N[C@@H]2C(=O)N3C(C(=O)OCc4ccccc4)=C(C)CS[C@H]23)cc1 [Compound 103]
HepG2 cells; human, 2 day
  HepG2 Toxicity LD50: >100 µg/mL
[2]; [5]
  MIC: 0.78 µg/mL (≈ 1.66 µM)
[2]; [6]
  MIC: 1.56 µg/mL (≈ 3.33 µM)

## CC1=C(C(=O)O)N2C(=O)[C@@H](NC(=O)CCc3ccccc3Cl)[C@H]2SC1 [Compound 116]
[1]; Table 9, read-out: MIC R
  MIC: > 100 µg/mL
HepG2 cells; human, 2 day
  HepG2 LD50: >100 µg/mL
[2]; [3]
  MIC: > 100 µg/mL
[2]; [4]
  MIC: > 100 µg/mL

## CC1=C(C(=O)O)N2C(=O)[C@@H](NC(=O)COc3ccccc3)[C@H]2SC1 [Compound 109]
[1]; Table 9, read-out: MIC R
  MIC: > 100 µg/mL
HepG2 cells; human, 2 day
  HepG2 LD50: >100 µg/mL
[2]; [3]
  MIC: 100 µg/mL (≈ 287 µM)
[2]; [4]
  MIC: > 100 µg/mL
